Results: US20120196899A1, “METHODS AND PRODUCTS FOR TREATING INFLAMMATION” (Rock Creek Pharmaceuticals, Inc., priority 2010, published 2012)
“And” between values parts separate entries of the source, which are not always exact repeats. Equal values may be shown once.

What was measured:
Assay type in all cases: in vivo, Sprague-Dawley rats
[1] = Coagulation parameters (aPTT, PT), day 15; conditions: for ACTIVATED PARTIAL THROMBOPLASTIN TIME: 0.75 mg/kg, group mean; for ACTIVE PARTIAL THROMBOPLASTIN TIME: nicotine 0.75 mg/kg, individual animals, tartrate
Excerpt: (§1) On day 15, urine was collected on all surviving animals for urinalysis. The animals were euthanized and bled via cardiac puncture. Blood was collected for hematology, clinical chemistry, and coagulation analysis. Tissues were collected, weighed, and stored in 10% neutral-buffered formalin for possible future analysis.
Individual values for the coagulation parameters activated partial thromboplastin (aPTT) and prothrombin times (PT) for each animal are listed in Table 34 (normal ranges, Table 30). These are summarized in terms of descriptive statistics in Table 25.

[2] = Necropsy observations and organ weights, day 15
Method: Body weight and food consumption was measured daily for 14 days. On day 15, urine was collected on all surviving animals. The animals were euthanized and bled via cardiac puncture, and blood was collected for analysis. Tissues were collected, weighed, evaluated for gross abnormalities, and stored in 10% neutral-buffered formalin.
as §1

Hematology, day 15 = conditions: for EOSINOPHIL / HCT / HGB / LYMPHOCYTE / MCH / MCHC / MCV / MONOCYTE / NEUTROPHIL SEG / PLATELET COUNT / RBC / RE[…] / WBC: 0.75 mg/kg, group mean
Excerpt: as §1

[3] = Group E, 0.75 mg/kg, females, individual animals, tartrate, 0.75 mg/kg
[4] = Group E, 0.75 mg/kg, males, individual animals, tartrate, 0.75 mg/kg
[5] = female animals, 0.75 mg/kg, group mean
[6] = nicotine 0.75 mg/kg single i.v., male rats

CN1CCCC1c1cccnc1.O=C(O)C(O)C(O)C(=O)O (single isomer, unassigned; (-)) [Nicotine, (−) Nicotine hydrogen tartrate, reference compound]
ACTIVATED PARTIAL THROMBOPLASTIN TIME ([1]; female): 16.9 s
ACTIVATED PARTIAL THROMBOPLASTIN TIME ([1]; male): 16.3 s
aPTT versus vehicle control ([1]; nicotine 0.75 mg/kg single i.v., male and female, day 15): aPTT was significantly lower relative to the vehicle control group
ACTIVE PARTIAL THROMBOPLASTIN TIME ([1]; female rats): 18.7 s and 15 s
ACTIVE PARTIAL THROMBOPLASTIN TIME ([1]; male rats): 15 s and 16.3 s and 17.6 s and 16.2 s
Tissue Collection Weights: Brain [2, 3]: 1.77 g and 1.93 g and 1.87 g
Tissue Collection Weights: Heart [2, 3]: 1.09 g and 1.06 g and 0.83 g
Tissue Collection Weights: Kidneys [2, 3]: 2.34 g and 2.29 g (2×)
Tissue Collection Weights: Liver [2, 3]: 9.48 g and 10.11 g and 9.18 g
Tissue Collection Weights: Lungs [2, 3]: 1.20 g and 1.48 g and 1.28 g
Tissue Collection Weights: Ovaries/uterus [2, 3]: 1.59 g and 0.92 g and 1.32 g
Tissue Collection Weights: Small intestine [2, 3]: 0.41 g and 0.40 g and 0.28 g
Tissue Collection Weights: Spleen [2, 3]: 0.46 g (2×) and 0.76 g
Tissue Collection Weights: Thymus [2, 3]: 0.54 g and 0.48 g (2×)
Tissue Collection Weights: Brain [2, 4]: 2.06 g and 1.90 g and 1.84 g and 1.94 g
Tissue Collection Weights: Heart [2, 4]: 1.20 g and 1.17 g and 1.21 g and 1.42 g
Tissue Collection Weights: Kidneys [2, 4]: 3.19 g and 3.04 g and 2.87 g and 3.01 g
Tissue Collection Weights: Liver [2, 4]: 11.97 g and 12.52 g and 12.06 g
Tissue Collection Weights: Lungs [2, 4]: 1.84 g and 1.49 g and 1.62 g and 1.66 g
Tissue Collection Weights: Prostate [2, 4]: 0.41 g and 0.28 g (2×) and 0.45 g
Tissue Collection Weights: Small intestine [2, 4]: 0.71 g and 0.56 g and 0.53 g and 0.40 g
Tissue Collection Weights: Spleen [2, 4]: 0.81 g and 0.62 g and 0.78 g and 0.86 g
Tissue Collection Weights: Testes [2, 4]: 3.05 g and 3.13 g and 3.02 g and 2.92 g
Tissue Collection Weights: Thymus [2, 4]: 0.54 g and 0.46 g and 0.56 g and 0.76 g
Organ Weight Brain [2, 5]: 1.86 g
Organ Weight Heart [2, 5]: 0.99 g
Organ Weight Kidneys [2, 5]: 2.31 g
Organ Weight Liver [2, 5]: 9.59 g
Organ Weight Lungs [2, 5]: 1.32 g
Organ Weight Ovaries/uterus [2, 5]: 1.28 g
Organ Weight Small intestine [2, 5]: 0.36 g
Organ Weight Spleen [2, 5]: 0.56 g
Organ Weight Thymus [2, 5]: 0.50 g
Organ Weight Brain, Mean [2, 6]: 1.94 g
Organ Weight Heart, Mean [2, 6]: 1.25 g
Organ Weight Kidneys, Mean [2, 6]: 3.03 g
Organ Weight Liver, Mean [2, 6]: 12.69 g
Organ Weight Lungs, Mean [2, 6]: 1.65 g
Organ Weight Prostate, Mean [2, 6]: 0.36 g
Organ Weight Small intestine, Mean [2, 6]: 0.55 g
Organ Weight Spleen, Mean [2, 6]: 0.77 g
Organ Weight Testes, Mean [2, 6]: 3.03 g
Organ Weight Thymus, Mean [2, 6]: 0.58 g
EOSINOPHIL (Hematology, day 15; female): 0.0%
HCT (Hematology, day 15; female): 46.7%
HGB (Hematology, day 15; female): 16.0 g/dL
LYMPHOCYTE (Hematology, day 15; female): 86.3%
MCH (Hematology, day 15; female): 19.9 pg
MCHC (Hematology, day 15; female): 34.2%
MCV (Hematology, day 15; female): 58.7 fL
MONOCYTE (Hematology, day 15; female): 1.0%
NEUTROPHIL SEG (Hematology, day 15; female): 12.7%
PLATELET COUNT (Hematology, day 15; female): 1.363e+06 µL⁻¹
RBC (Hematology, day 15; female): 8e+06 µL⁻¹
RE[…] (Hematology, day 15; female): 5.1%
WBC (Hematology, day 15; female): 10200 µL⁻¹
mean corpuscular volume (MCV) and mean corpuscular hemoglobin (MCH) (Hematology, day 15; females, anatabine […], nicotine 0.75 mg/kg single i.v.): small, but statistically significant decreases
EOSINOPHIL (Hematology, day 15; male): 0.0%
HCT (Hematology, day 15; male): 46.6%
HGB (Hematology, day 15; male): 15.8 g/dL
LYMPHOCYTE (Hematology, day 15; male): 85.8%
MCH (Hematology, day 15; male): 20.9 pg
MCHC (Hematology, day 15; male): 34.0%
MCV (Hematology, day 15; male): 61.5 fL
MONOCYTE (Hematology, day 15; male): 2.5%
NEUTROPHIL SEG (Hematology, day 15; male): 11.8%
PLATELET COUNT (Hematology, day 15; male): 1.3558e+06 µL⁻¹
RBC (Hematology, day 15; male): 7.6e+06 µL⁻¹
RE[…] (Hematology, day 15; male): 5.2%
WBC (Hematology, day 15; male): 11400 µL⁻¹
